Measured values: patent US6544789B1, “Phosphorus-controllable recombinant expression of polypeptides in plants” (Board of Trustees, Rutgers, The State University of New …, priority 2000, dated 2003)

How the values were obtained:
APase promoter = assay: GUS expression in Pr-GUS transformants grown in sand culture (specificity of APase promoter induction); assay type: in vivo, Arabidopsis thaliana; set-up: key to relative GUS expression: “−” (lowest); “+/−,”; “+,”; “++,”; “+++” (highest); settings: for relative GUS expression: 100 μM, 14-day-old seedlings
Description: A screening method was developed to evaluate GUS expression levels in the various transformed lines: T2 seedlings were germinated in pots containing fine granules of washed sand (40-100 mesh Fisher Scientific, Pittsburgh, Pa.). To remove trace amounts of contaminating elements, the sand was previously washed by soaking it in 0.1 M HCl for 45 minutes and then washing it extensively with ddH2O until the sand mixture reached pH 6.5. Seedlings were grown in standard phosphorus medium for 14 days before transfer to phosphorus-deficient medium. GUS expression in plants subjected to phosphorus-deficient conditions for 14 days is shown in FIGS. 4A-4D (FIG. 4A—lateral root primordium with localized GUS expression, FIG. 4B—GUS expression in several cell layers of lateral root primordium; FIG. 4C—emerging lateral root meristem; FIG. 4D—lateral root meristems (LRM) and an apical root meristem (ARM)). Seedlings were also germinated in pots containing washed sand, and then fertilized using 0.25×Hoagland's medium with or without phosphorus (0.25 mM), and examined after 10 days. GUS expression in the roots of these seedlings (FIG. 4F) or in the whole seedlings (FIG. 4G—not starved; FIG. 4H—starved) is shown. Phosphorus starvation symptoms were evident 8 days after sowing. Plant expression was examined by staining with x-gluc (i.e., 5-bromo-4-chloro-3-indolyl β-D-glucuronide), as described below, to evaluate GUS expression.
GUS activity was determined according to the method of Jefferson et al., EMBO J. 6:3901-3907 (1987). After staining, tissue was fixed in 1.5% formaldehyde-4% acetic acid-30% ethanol for 30 minutes, dehydrated through a graded ethanol series (50, 95, 100% for 20 minutes at each step), incubated 2 hours at 100% ethanol, and rehydrated through a graded ethanol series (95 and 50%, for 20 minutes each step). Rehydrated tissues were stored in H2O.
Pr-GUS transformants, germinated and grown in sand culture, were used to test the specificity of APase promoter induction by either inducing nutritional deficiencies other than P-limitation or by using such known chemical inducers of gene expression as salicylic acid (Ward et al., Plant Cell 3:1085-1094 (1991)) and jasmonic acids (Staswick, et al., Plant Physiol 96:130-136 (1991), Creelman et al., New Phytol. 75:479-490 (1992)) (Tables 1 and 2). Seedlings were germinated in pots containing washed sand and fertilized with modified 0.25×Hoagland's medium optionally lacking nitrogen (N), potassium (K), or iron (Fe). Nitrogen-free Hoagland's medium was prepared by substituting K2HPO4 for (NH4)2SO4, CaSO4 for Ca(NO3)2 and K2SO4 for KNO3. Potassium-free Hoagland's medium was prepared by substituting NaNO3 for KNO3. Iron deficient medium was prepared by removing Fe-EDTA from the medium composition. Aqueous solutions of salicylic acid (SA), jasmonic acid (JA), and mannose were supplied to 14-day-old seedlings by spraying until solutions ran off the seedlings; approximately 20 ml of 2.5-fold concentrated solution was added to the sand at the same time.
Both chemical inducers were applied at concentrations capable of strongly inducing a variety of plant genes. These treatments were compared to the effects of P removal (Table 1, where “P” is phosphorus, N is nitrogen, K is potassium, and Fe is iron, “+” indicates presence and “−” indicates absence, and relative expression is indicated on a scale of “−” (lowest), “+/−,” “+,” “++,” to “+++” (highest)) or the addition of mannose (Table 2, where is indicated on a scale of “−” (lowest), “+/−,” “+,” “++,” to “+++” (highest)). Mannose is known to induce P deficiency in plant cells by virtue of its ability to bind cellular phosphates as mannose 6-phosphate (Watkins, et al., Plant Physiol. 97:139-146 (1987)), thereby acting as an agent that associates with a phosphorus compound. […] Seventeen days after sowing, the experiment was terminated.

acid phosphatase (APase) = assay: APase activity in growth medium of B. juncea plants (p-NPP substrate, 410 nm); assay type: in vivo, Brassica juncea; settings: after 6 days incubation
Description: Expression and secretion studies of B. juncea began with the germination of B. juncea seeds in Petri dishes on Gamborg's B-5 (Life Technologies, Gibco BRL, Grand Island, N.Y.) agar medium. Germinated seedlings were then transferred to 20 ml vials containing one-quarter-strength Hoagland's solution (Arnon et al., Soil Sci. 50:463-483 (1940)). Plants were grown in shaker-incubators (25 rpm), at 24° C. under a 16-hour photoperiod, with 150 mE/m^2/s illumination provided by a mixture of fluorescent and incandescent lamps. After 10 days, plants were transferred into 125 ml flasks with 120 ml of 0.25×Hoagland solution containing one of the following concentrations of phosphorus: 3 mM, 1 mM, 0.25 mM or 0.01 mM (i.e., phosphorus deficiency). In the low phosphorus medium, (NH4)2SO4 was substituted for NH4H2PO4. The volume of medium in each flask was adjusted daily to 120 ml and the exudate-containing media were sampled for APase activity.
Unconcentrated media samples were subjected to chromogenic determination at 410 nm. The activity of APase in the growth medium was determined using p-nitrophenyl-1-phosphate (p-NPP, Sigma Chemical Co., St. Louis, Mo.) as substrate and 50 mM Na-acetate buffer, pH 4.6, in a water bath at 37° C. (Ascencio, J., J. Plant Nutr. 20:9-26 (1997)). The reaction was stopped after 1 hour with a 1 M Na2CO3 solution and the yellow p-nitrophenol (PNP) was measured at 410 nm in a DU 640 Spectrophotometer (Beckman Instruments, Columbia, Md.). […] Thus, expression of the exuded A. thaliana APase was de-repressed by phosphorus starvation.

SMILES	relative GUS expression (APase promoter; 1 day after treatment)	relative GUS expression (APase promoter; 3 days after treatment)	relative GUS expression (APase promoter; 5 days after treatment)	relative GUS expression (APase promoter; 7 days after treatment)	APase activity in exudate-containing medium (acid phosphatase (APase); 0.01 mM phosphorus)	APase activity in exudate-containing medium (acid phosphatase (APase); 0.25 mM phosphorus)	APase activity in exudate-containing medium (acid phosphatase (APase); 1 mM phosphorus)	APase activity in exudate-containing medium (acid phosphatase (APase); 3 mM phosphorus)	expression of GUS on addition of phosphorus to the medium (APase promoter; phosphorus-starved plants)
CC/C=C\C[C@H]1C(=O)CC[C@@H]1CC(=O)O [jasmonic acid]	−	−	−	−					
[P] [phosphorus]					~0.33 A410/(ml-hour)	~0.21 A410/(ml-hour)	~0.09 A410/(ml-hour)	approximately 0.04 A410/(ml-hour)	diminished
O=C(O)c1ccccc1O [salicylic acid]	−	+	−	+/−					
